Reference: US12612406B2, “Cytisine salts” (Achieve Pharma UK Limited, priority 2017, dated 2026)

Legend:
[1] = Screening of cytisine salt formation with acid salt formers; format: physicochemical; settings: equimolar acid, 40° C. one hour, cooled to ambient
Procedure: Stock solutions of acid salt formers were prepared in the carrier solvents and having the molarities detailed in the following Table 1 below:
Stock solutions of cytisine API (non-synthetic) were also prepared in CH3CN and in Me-THF. 2.4 g of cytisine was dissolved in 60 ml of 2-Me-THF heated to a temperature of 60° C. 2.4 g of cytisine was dissolved in 24 ml of CH3CN heated to a temperature of 40° C.
200 ml capacity tubes heated to 40° C. were charged with 2 ml or 5 ml of the cytisine stock solution. The acid stock solutions were then added to the heated tubes in equimolar amounts. The solutions were held at 40° C. for one hour and then allowed to cool to ambient temperature (˜18° C.) for 18 hours.
Filtration of the obtained solids was then carried out using a PTFE fritted column and the obtained solids were dried at 50° C. for 48 hours. The properties of the obtained products were then analysed, and the outcome of this screen and the properties of the obtained products are summarised in Table 2 below: […]

[2] = Lactose compatibility: stability of cytisine and cytisine salts with lactose on storage, cytisine by HPLC; format: physicochemical; settings: 25° C./60% RH and 40° C./75% RH, 7 and 14 days
Procedure: The stability of formulations of cytisine and the present cytisine salts with lactose was investigated. Samples were stored at 25° C. and 60% relative humidity (RH) and at 40° C. and 75% RH and evaluated after 7 and 14 days. […] Thus, these salts effectively improve the stability of cytisine and facilitates its formulation with compositions comprising lactose.

| Compound | Assessment (salt preparation) ([1]; API stock solution in 2-MeTHF) | Assessment (salt preparation) ([1]; API stock solution in CH3CN) | Degradation rate of cytisine compared with free base form [2] |
| --- | --- | --- | --- |
| Ascorbate | Secondary precipitations, unstable salt | Secondary precipitations, unstable salt | – |
| CC(=O)O [Acetate] | Secondary precipitations, unstable salt | Secondary precipitations, unstable salt | – |
| Benzoate | Failed to yield solid | Failed to yield solid | – |
| Glucuronate | Failed to yield solid | Failed to yield solid | – |
| CS(=O)(=O)O.O=c1cccc2n1C[C@@H]1CNC[C@H]2C1 [Mesylate, Cytisine Mesylate] | Excellent salt profile | Excellent salt profile | degraded at a substantially lower rate |
| O=C(O)C=CC(=O)O.O=c1cccc2n1CC1CNCC2C1 (stereo not shown) [Maleate, Cytisine Maleate] | Excellent salt profile | Excellent salt profile | – |
| O=C(O)c1cc(O)ccc1O.O=c1cccc2n1C[C@@H]1CNC[C@H]2C1 [Gentisate, Cytisine Gentisate] | Excellent salt profile | Excellent salt profile | degraded at a substantially lower rate |
